Source: patent US11866509B2, “Humanized antibodies against CEACAM1” (Famewave Ltd., priority 2014, dated 2024)

T1: CEACAM1 (Homo sapiens, UniProt P13688)
T1 sequence (P13688 35-526): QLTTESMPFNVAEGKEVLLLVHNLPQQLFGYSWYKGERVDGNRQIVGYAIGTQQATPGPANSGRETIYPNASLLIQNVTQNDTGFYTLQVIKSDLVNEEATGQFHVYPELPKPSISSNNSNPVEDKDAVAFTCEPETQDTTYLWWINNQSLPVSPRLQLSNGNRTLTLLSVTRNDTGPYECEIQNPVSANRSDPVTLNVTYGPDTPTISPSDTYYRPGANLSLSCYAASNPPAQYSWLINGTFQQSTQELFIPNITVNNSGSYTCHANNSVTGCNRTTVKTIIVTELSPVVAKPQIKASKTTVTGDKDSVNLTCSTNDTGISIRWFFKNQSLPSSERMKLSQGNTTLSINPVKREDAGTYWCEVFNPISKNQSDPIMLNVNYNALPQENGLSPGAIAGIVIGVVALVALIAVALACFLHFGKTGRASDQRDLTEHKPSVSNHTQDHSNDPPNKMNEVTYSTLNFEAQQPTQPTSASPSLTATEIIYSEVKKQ


Experiments:
[1] = system: CEACAM1 expression on sk-mel-2 cells; assay: CEACAM1 extracellular staining by FACS, W.T. B-Raf mutated N-Ras cells; format: cell-based, human; conditions: 1 μM
Method: Volume equivalents of DMSO (vehicle) were used as control. […] Cells were then analyzed for CEACAM1 protein expression by FACS as described above. Vemurafenib-resistant cell lines were generated by gradual increase of the inhibitor's concentration in culture, up to 0.32 μM. […] Cells were then tested for CEACAM1 expression using MRG1 (murine antibody to human CEACAM1) in flow cytometry as described above. Total RNA was extracted with TRIZOL and cDNA was generated with a reverse transcriptase, according to routine protocols.

[2] = system: B-Raf V600E cell samples (526mel, 624mel); assay: T-cell induced killing of melanoma cells, LDH release; format: cell-based, human; conditions: 1 μM, effector-target ratio 5:1, overnight
Method: More specifically, whereas only 50% ( 3/6) of the melanoma cells having a wild type B-Raf, i.e. a valine in position 600, expressed detectable levels of CEACAM1 (Ct of 36 and less), 100% (18/18) of the melanoma cells having a mutated B-Raf, i.e. a glutamic acid in position 600, expressed detectable levels of CEACAM1 (Ct of 36 and less). • B. CEACAM1 extracellular staining of cancer cells treated with B-Raf or MEK inhibitors. […] At each time point, CEACAM1 expression on the cells was determined by FACS. Volume equivalents of DMSO (vehicle) were used as control. […] Inhibitor-resistant cancer cells show increase in CEACAM1 expression and restored activity of MAPK pathway. Two vemurafenib-sensitive B-Raf V600E cell samples (526mel, 624mel) and vemurafenib-resistant cell lines derived therefrom were incubated for 2 days with 1 μM vemurafenib. Cells were then analyzed for CEACAM1 protein expression by FACS as described above. […] MAPK activity was measured in vemurafenib-sensitive and vemurafenib-resistant B-Raf V600E (624mel) cell samples by immunoblotting for phosphorylated ERK1/2 (pERK, Thr202/Tyr204), total ERK1/2 and actin after 24 hours of exposure to 160 nM vemurafenib. […] Initial vemurafenib concentration was 0.01 of the determined IC50 (0.64 nM). […] Cell killing was determined by LDH release. […]

[3] = target: T1, CEACAM1; conditions: WO 2010/125571, WO 2013/054331; cited from earlier work

Molecule | effect on CEACAM1 expression levels [1] | sensitization to cytotoxic T cells [2] | selectivity to CEACAM1 [3]
CCCS(=O)(=O)Nc1ccc(F)c(C(=O)c2c[nH]c3ncc(-c4ccc(Cl)cc4)cc23)c1F [vemurafenib] | no effect | significantly sensitizes melanoma cells to cytotoxic T cells | 
CM-10: chimeric anti-CEACAM-1 antibody disclosed in WO 2013/054331 (antibody, V domains shown) VH: QVQLQQSGAELVRPGTSVKVSCKASGYAFTNNLIEWVKQRPGQGLEWIGVINPGSGDTNYNEKFKGKATLTADKSSNTAYMQLSSLTSDDSAVYFCARGDYYGGFAVDYWGQGTSVTVSS VL: DIQMTQTTSSLSASLGDRVTISCRTSQDIGNYLNWYQQKPDGTVKLLIYYTSRLHSGVPSRFSGSGSGTDYSLTISNLEQEDIATYFCQQGKSLPRTFGGGTKLEIK |  |  | highly selective to CEACAM1
